“And” between values parts separate entries of the source, which are not always exact repeats. Identical values can stand only once. Marks after values point to notes of the source that are not given here. Non-standard residues stand in square brackets, D forms with d. Residues, ends and D or L forms follow the SMILES beside them. *: point of attachment. Asu = N[C@@H](CCCCCC(=O)O)C(=O)O; NHOH = ON*
Key:
HDAC1 [1] = molecular target: T1, HDAC1 (Homo sapiens, UniProt Q13547); assay: Recombinant HDAC µSPOT microarray binding assay;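 further: slides with spotted peptides incubated with six HDAC concentrations in HEPES buffer pH 7.4, spot intensities fitted by four-parameter logistic, EC50 as enzyme concentration giving half-maximal binding signal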
T1 construct: HDAC1 (full length, C-terminal His tag, C-terminal FLAG tag, BPS Bioscience, cat. #: 50051); FLAG (C); purchased BPS Bioscience 50051
T1 sequence (Q13547 whole entry): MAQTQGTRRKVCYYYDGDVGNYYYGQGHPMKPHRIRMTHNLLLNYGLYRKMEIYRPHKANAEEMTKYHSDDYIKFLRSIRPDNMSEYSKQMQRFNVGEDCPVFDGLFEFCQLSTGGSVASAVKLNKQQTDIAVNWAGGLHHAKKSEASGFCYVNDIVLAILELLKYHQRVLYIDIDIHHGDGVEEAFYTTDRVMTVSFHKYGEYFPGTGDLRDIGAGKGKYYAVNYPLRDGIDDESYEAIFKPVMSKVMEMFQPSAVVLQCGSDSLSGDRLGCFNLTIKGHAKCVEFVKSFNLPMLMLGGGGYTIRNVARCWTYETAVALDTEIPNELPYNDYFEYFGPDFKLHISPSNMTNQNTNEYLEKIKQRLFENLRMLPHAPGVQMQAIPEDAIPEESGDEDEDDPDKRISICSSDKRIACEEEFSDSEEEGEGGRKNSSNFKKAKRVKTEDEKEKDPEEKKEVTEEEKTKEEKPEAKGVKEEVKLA

HDAC3/NCoR2 [2] = molecular target: T2, HDAC3/NCoR2 (Homo sapiens, UniProt O15379); assay: Recombinant HDAC µSPOT microarray binding assay;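 further: peptide spots on cellulose slides incubated with rising HDAC enzyme concentrations, imaged together, four-parameter logistic fit, EC50 is enzyme concentration giving half-maximal binding signal, two experiments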
T2 construct: HDAC3/NCoR2 (full length, C-terminal His tag, NCoR2 N-terminal GST tag); purchased BPS Bioscience 50003
T2 sequence (O15379 whole entry): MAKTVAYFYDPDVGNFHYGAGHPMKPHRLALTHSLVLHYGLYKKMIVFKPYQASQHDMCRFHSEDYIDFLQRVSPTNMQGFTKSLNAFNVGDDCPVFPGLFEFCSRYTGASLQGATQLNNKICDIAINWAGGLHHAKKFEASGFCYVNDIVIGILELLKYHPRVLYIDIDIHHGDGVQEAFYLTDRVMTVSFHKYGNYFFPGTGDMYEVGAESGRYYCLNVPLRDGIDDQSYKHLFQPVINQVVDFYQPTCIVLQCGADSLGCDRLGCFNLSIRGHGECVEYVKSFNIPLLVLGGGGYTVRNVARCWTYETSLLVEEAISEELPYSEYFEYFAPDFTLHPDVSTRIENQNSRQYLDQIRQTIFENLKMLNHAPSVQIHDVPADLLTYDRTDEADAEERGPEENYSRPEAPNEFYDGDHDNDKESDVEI
T2 sequence (Q9Y618 389-480 partner limits assumed): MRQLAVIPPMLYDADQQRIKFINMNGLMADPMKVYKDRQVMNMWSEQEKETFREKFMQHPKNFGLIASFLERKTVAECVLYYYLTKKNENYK

HDAC4 = molecular target: T3, HDAC4 (Homo sapiens, UniProt P56524); assay: HDAC inhibition assay (fluorogenic, Ac-Leu-Gly-Lys(Tfa)-AMC); format: biochemical; settings: 2 internal replicates
T3 construct: purchased BPS Bioscience 50004
T3 sequence (P56524 627-1084): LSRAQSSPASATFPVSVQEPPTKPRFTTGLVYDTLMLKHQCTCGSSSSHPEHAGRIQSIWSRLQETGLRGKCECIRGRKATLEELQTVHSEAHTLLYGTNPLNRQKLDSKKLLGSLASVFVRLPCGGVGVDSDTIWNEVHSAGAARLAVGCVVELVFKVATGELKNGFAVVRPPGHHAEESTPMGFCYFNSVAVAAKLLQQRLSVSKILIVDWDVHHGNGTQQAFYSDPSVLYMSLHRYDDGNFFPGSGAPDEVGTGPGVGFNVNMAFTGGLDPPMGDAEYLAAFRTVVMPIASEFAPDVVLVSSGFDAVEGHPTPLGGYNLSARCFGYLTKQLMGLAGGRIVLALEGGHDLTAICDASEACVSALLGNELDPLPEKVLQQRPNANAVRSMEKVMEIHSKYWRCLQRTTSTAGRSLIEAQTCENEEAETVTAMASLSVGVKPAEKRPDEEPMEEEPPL

HDAC3/NCoR2 [3] = molecular target: T2, HDAC3/NCoR2; assay: HDAC inhibition assay (fluorogenic, Ac-Leu-Gly-Lys(Ac)-AMC); format: biochemical; settings: for HDAC3 dose-response data (relative enzyme activity), Fig. 6 + S. Fig. 10: duplicate columns
HDAC1 [4] = molecular target: T1, HDAC1; assay: as above; format: biochemical; settings: for HDAC1 dose-response data (relative enzyme activity), Fig. 6 + S. Fig. 10: duplicate columns
HDAC8 = molecular target: T4, HDAC8 (Homo sapiens, UniProt Q9BY41); assay: HDAC inhibition assay (fluorogenic, Ac-Leu-Gly-Lys(Tfa)-AMC); format: biochemical; settings: for HDAC8 dose-response data (relative enzyme activity, replicate values), Fig. 6 + S. Fig. 10: two replicate columns per inhibitor; for HDAC8 dose-response data (relative enzyme activity), Fig. 6 + S. Fig. 10: duplicate columns
T4 construct: HDAC8 (full length, C-terminal His tag, BPS Bioscience, cat. #: 50008); purchased BPS Bioscience 50008
T4 sequence (Q9BY41 1-377): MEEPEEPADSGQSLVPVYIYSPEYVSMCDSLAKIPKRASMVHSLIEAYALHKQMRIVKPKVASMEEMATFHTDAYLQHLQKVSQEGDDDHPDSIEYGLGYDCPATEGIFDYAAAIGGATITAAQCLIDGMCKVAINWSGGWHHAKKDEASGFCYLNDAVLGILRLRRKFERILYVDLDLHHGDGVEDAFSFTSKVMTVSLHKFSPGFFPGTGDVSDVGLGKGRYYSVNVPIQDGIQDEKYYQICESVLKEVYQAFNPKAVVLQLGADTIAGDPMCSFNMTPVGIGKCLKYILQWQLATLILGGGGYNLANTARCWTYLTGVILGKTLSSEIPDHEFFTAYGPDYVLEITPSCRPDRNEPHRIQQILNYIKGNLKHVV

HDAC6 = molecular target: T5, HDAC6 (Homo sapiens, UniProt Q9UBN7); assay: HDAC inhibition assay (fluorogenic, Ac-Leu-Gly-Lys(Ac)-AMC); format: biochemical; settings: for residual enzymatic activity relative to control wells: HDAC6, replicates
T5 construct: HDAC6 (full length, BPS Bioscience, cat. #: 50056); purchased BPS Bioscience 50056
T5 sequence (Q9UBN7 1-1215): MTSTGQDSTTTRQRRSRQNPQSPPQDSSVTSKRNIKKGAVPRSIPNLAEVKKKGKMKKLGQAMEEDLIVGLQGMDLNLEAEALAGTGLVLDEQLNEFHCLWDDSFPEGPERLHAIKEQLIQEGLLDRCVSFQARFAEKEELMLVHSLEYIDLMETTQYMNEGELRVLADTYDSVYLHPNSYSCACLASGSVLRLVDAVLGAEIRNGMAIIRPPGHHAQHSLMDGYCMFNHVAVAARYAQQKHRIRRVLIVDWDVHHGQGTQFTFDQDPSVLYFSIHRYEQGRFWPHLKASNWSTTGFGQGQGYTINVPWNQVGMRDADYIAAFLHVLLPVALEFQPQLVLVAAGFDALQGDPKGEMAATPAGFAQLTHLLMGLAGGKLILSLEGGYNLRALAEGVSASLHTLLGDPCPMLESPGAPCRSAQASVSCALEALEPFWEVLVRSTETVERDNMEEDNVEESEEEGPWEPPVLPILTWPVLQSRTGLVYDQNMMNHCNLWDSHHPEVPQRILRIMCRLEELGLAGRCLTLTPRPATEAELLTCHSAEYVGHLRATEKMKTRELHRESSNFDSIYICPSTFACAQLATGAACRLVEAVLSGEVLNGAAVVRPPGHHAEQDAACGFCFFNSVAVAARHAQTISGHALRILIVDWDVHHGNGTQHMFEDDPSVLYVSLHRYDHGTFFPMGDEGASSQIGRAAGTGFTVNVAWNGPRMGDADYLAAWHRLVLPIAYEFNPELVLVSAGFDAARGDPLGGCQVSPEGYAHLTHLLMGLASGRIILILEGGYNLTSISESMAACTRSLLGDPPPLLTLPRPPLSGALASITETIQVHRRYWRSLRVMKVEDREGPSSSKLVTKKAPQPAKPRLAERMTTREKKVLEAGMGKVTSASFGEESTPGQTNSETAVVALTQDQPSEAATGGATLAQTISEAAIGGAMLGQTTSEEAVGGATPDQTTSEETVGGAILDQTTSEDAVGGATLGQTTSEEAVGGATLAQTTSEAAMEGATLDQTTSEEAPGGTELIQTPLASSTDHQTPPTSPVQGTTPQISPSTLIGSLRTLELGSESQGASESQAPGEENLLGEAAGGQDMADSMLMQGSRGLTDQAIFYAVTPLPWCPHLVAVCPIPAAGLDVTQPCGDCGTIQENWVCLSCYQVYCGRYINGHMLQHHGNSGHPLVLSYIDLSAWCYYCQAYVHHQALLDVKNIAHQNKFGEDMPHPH

HDAC2 = molecular target: T6, HDAC2 (Homo sapiens, UniProt Q92769); assay: as above; format: biochemical; settings: for HDAC2 dose-response data (relative enzyme activity), Fig. 6 + S. Fig. 10: duplicate columns
T6 construct: HDAC2 (full length, C-terminal His tag, BPS Bioscience, cat. #: 50002); purchased BPS Bioscience 50002
T6 sequence (Q92769 whole entry): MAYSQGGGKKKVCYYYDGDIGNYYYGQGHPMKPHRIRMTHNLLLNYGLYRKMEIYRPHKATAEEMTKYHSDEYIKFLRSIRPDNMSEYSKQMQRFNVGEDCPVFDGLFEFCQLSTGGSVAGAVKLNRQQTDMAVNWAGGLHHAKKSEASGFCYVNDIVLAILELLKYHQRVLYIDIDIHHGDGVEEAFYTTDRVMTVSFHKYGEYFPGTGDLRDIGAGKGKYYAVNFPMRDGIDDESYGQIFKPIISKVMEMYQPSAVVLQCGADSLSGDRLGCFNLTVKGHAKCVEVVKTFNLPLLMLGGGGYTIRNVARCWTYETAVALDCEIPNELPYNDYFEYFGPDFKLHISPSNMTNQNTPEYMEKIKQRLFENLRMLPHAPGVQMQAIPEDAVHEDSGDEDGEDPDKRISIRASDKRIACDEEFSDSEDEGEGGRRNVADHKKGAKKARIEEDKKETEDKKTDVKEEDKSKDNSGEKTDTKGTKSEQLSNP

[5] = log[inhibitor(M)] -10,5850266520292*, whole line marked with asterisks

## CC(=O)N[C@@H](C)C(=O)N[C@H](C(=O)NCC(=O)NCC(=O)N[C@H](C(=O)N[C@@H](CCCCCC(=O)NO)C(=O)N[C@@H](CCCCN)C(=O)N1CCC[C@H]1C(=O)N[C@@H](Cc1c[nH]cn1)C(=O)N[C@@H](CCCNC(=N)N)C(=O)N[C@@H](Cc1ccc(O)cc1)C(=O)N[C@@H](CCCNC(=N)N)C(=O)N1CCC[C@H]1C(=O)NCC(=O)N[C@H](C(=O)N[C@H](C(=O)N[C@@H](Cc1c[nH]c2ccccc12)C(N)=O)C(C)C)[C@@H](C)O)C(C)C)[C@@H](C)O [15a] (Ac-ATGGV[Asu](NHOH)KPHRYRPGTVW-NH2)
HDAC1 [1]
  EC50: 5.01 nM
HDAC3/NCoR2 [2]
  EC50: 2.4 nM
HDAC4; inhibitor 5 µM
  residual enzymatic activity relative to control wells: 108.47
HDAC4; inhibitor 5 µM, read-out: residual enzymatic activity relative to control wells
  remaining activity at 5 µM: 98.7%
HDAC4; inhibitor 50 µM
  residual enzymatic activity relative to control wells: 74.7
HDAC4; inhibitor 50 µM, read-out: residual enzymatic activity relative to control wells
  remaining activity at 50 µM: 89.4%
HDAC3/NCoR2 [3]
  Ki: 21.7 ± 0.2 nM
HDAC3/NCoR2 [3]; log[inhibitor(M)] -4.30103
  HDAC3 dose-response data (relative enzyme activity), Fig. 6 + S. Fig. 10: 0.4402 and 0.4708
HDAC3/NCoR2 [3]; log[inhibitor(M)] -5
  HDAC3 dose-response data (relative enzyme activity), Fig. 6 + S. Fig. 10: 1.6435 and 1.312
HDAC3/NCoR2 [3]; log[inhibitor(M)] -5.69897
  HDAC3 dose-response data (relative enzyme activity), Fig. 6 + S. Fig. 10: 7.236 and 5.348
HDAC3/NCoR2 [3]; log[inhibitor(M)] -6.39794
  HDAC3 dose-response data (relative enzyme activity), Fig. 6 + S. Fig. 10: 28.5726 and 19.4648
HDAC3/NCoR2 [3]; log[inhibitor(M)] -7.09691
  HDAC3 dose-response data (relative enzyme activity), Fig. 6 + S. Fig. 10: 64.2255 and 50.9194
HDAC3/NCoR2 [3]; log[inhibitor(M)] -7.79588
  HDAC3 dose-response data (relative enzyme activity), Fig. 6 + S. Fig. 10: 97.9959 and 83.1339
HDAC3/NCoR2 [3]; log[inhibitor(M)] -8.49485
  HDAC3 dose-response data (relative enzyme activity), Fig. 6 + S. Fig. 10: 112.173 and 97.0745
HDAC3/NCoR2 [3]; log[inhibitor(M)] -9.19382
  HDAC3 dose-response data (relative enzyme activity), Fig. 6 + S. Fig. 10: 112.635 and 104.337
HDAC3/NCoR2 [3]; log[inhibitor(M)] -9.89279
  HDAC3 dose-response data (relative enzyme activity), Fig. 6 + S. Fig. 10: 114.089 and 99.1792
HDAC1 [4]
  Ki: 70 ± 1 nM
HDAC1 [4]; log[inhibitor(M)] -4.30103
  HDAC1 dose-response data (relative enzyme activity), Fig. 6 + S. Fig. 10: 2.2617 and 2.685
HDAC1 [4]; log[inhibitor(M)] -6.39794
  HDAC1 dose-response data (relative enzyme activity), Fig. 6 + S. Fig. 10: 54.2155 and 43.2283
HDAC1 [4]; log[inhibitor(M)] -7.09691
  HDAC1 dose-response data (relative enzyme activity), Fig. 6 + S. Fig. 10: 91.0731 and 84.0543
HDAC1 [4]; log[inhibitor(M)] -7.79588
  HDAC1 dose-response data (relative enzyme activity), Fig. 6 + S. Fig. 10: 111.87 and 112.408
HDAC1 [4]; log[inhibitor(M)] -8.49485
  HDAC1 dose-response data (relative enzyme activity), Fig. 6 + S. Fig. 10: 111.243 and 114.065
HDAC1 [4]; log[inhibitor(M)] -9.19382
  HDAC1 dose-response data (relative enzyme activity), Fig. 6 + S. Fig. 10: 105.717 and 111.571
HDAC1 [4]; log[inhibitor(M)] -9.89279
  HDAC1 dose-response data (relative enzyme activity), Fig. 6 + S. Fig. 10: 103.869 and 106.196
HDAC1 [4]; [5]
  HDAC1 dose-response data (relative enzyme activity), Fig. 6 + S. Fig. 10: 100,2561* and 100,875*
HDAC8
  Ki: 1680 ± 13 nM
HDAC8; Inhibitor conc [M] -8.49485 (log)
  HDAC8 dose-response data (relative enzyme activity, replicate values), Fig. 6 + S. Fig. 10: 104.092 and 106.342
HDAC8; Inhibitor conc [M] -9.19382 (log)
  HDAC8 dose-response data (relative enzyme activity, replicate values), Fig. 6 + S. Fig. 10: 107.088 and 104.012
HDAC8; Inhibitor conc [M] given as -7.09691 (log)
  HDAC8 dose-response data (relative enzyme activity, replicate values), Fig. 6 + S. Fig. 10: 97.5487 and 105.051
HDAC8; Inhibitor conc [M] given as -7.79588 (log)
  HDAC8 dose-response data (relative enzyme activity, replicate values), Fig. 6 + S. Fig. 10: 103.383 and 113.008
HDAC8; Inhibitor conc [M] given as -9.89279 (log)
  HDAC8 dose-response data (relative enzyme activity, replicate values), Fig. 6 + S. Fig. 10: 103.125 and 102.688
HDAC8; Inhibitor conc [M] -4.30103
  HDAC8 dose-response data (relative enzyme activity), Fig. 6 + S. Fig. 10: 7.884 and 8.121
HDAC8; Inhibitor conc [M] -5
  HDAC8 dose-response data (relative enzyme activity), Fig. 6 + S. Fig. 10: 24.6267 and 25.2578
HDAC8; Inhibitor conc [M] -5.69897
  HDAC8 dose-response data (relative enzyme activity), Fig. 6 + S. Fig. 10: 57.0341 and 59.1741
HDAC8; Inhibitor conc [M] -6.39794
  HDAC8 dose-response data (relative enzyme activity), Fig. 6 + S. Fig. 10: 87.2467 and 93.8953
HDAC6; log[inhibitor(M)] -4.30103
  residual enzymatic activity relative to control wells: 3.78 and 1.49
HDAC6; log[inhibitor(M)] -5
  residual enzymatic activity relative to control wells: 9.7 and 2.71
HDAC6; log[inhibitor(M)] -5.69897
  residual enzymatic activity relative to control wells: 22.49 and 13.07
HDAC6; log[inhibitor(M)] -6.39794
  residual enzymatic activity relative to control wells: 47.9 and 35.05
HDAC6; log[inhibitor(M)] -7.09691
  residual enzymatic activity relative to control wells: 78.65 and 63.46
HDAC6; log[inhibitor(M)] -7.79588
  residual enzymatic activity relative to control wells: 92.99 and 81.77
HDAC6; log[inhibitor(M)] -8.49485
  residual enzymatic activity relative to control wells: 99.83 and 89.79
HDAC6; log[inhibitor(M)] -9.19382
  residual enzymatic activity relative to control wells: 102.59 and 95.48
HDAC6; log[inhibitor(M)] -9.89279
  residual enzymatic activity relative to control wells: 101.36 and 96.27
HDAC6; log[inhibitor(M)] -10.585
  residual enzymatic activity relative to control wells: 101,22* and 96,07*
HDAC6; in solution
  Ki: 114 ± 2 nM
HDAC2; log[inhibitor(M)] -5
  HDAC2 dose-response data (relative enzyme activity), Fig. 6 + S. Fig. 10: 7.156 and 8.696
HDAC2; log[inhibitor(M)] -5.69897
  HDAC2 dose-response data (relative enzyme activity), Fig. 6 + S. Fig. 10: 27.5449 and 22.7201
HDAC2; log[inhibitor(M)] -7.79588
  HDAC2 dose-response data (relative enzyme activity), Fig. 6 + S. Fig. 10: 107.892 and 100.231
HDAC2; [5]
  HDAC2 dose-response data (relative enzyme activity), Fig. 6 + S. Fig. 10: 104,1863* and 103,2461*
HDAC2; resynthesized peptide in solution, Cheng-Prusoff, n = 2
  Ki: 70.2 ± 0.5 nM

Reference: publication PMC7782793, “Hydroxamic acid-modified peptide microarrays for profiling isozyme-selective interactions and inhibition of histone deacetylases” (Nature Communications, 2021)
